pEC50: −log10 of the molar value.
Target: T1, human somatostatin receptor subtype 2 (Homo sapiens, UniProt P30874)
T1 construct: expressed in transfected cells
Assay: cAMP functional assay for SSTR2 agonists
Format: cell-based
Details: inhibition of cAMP activities via human SST2 receptor (SSTR2), CHO-K1 cells; read-out: EC50
Source text: General overview: All five SSTR subtypes are Gi coupled G-protein coupled receptors (GPCRs) that lead to decreases in intracellular cyclic AMP (cAMP) when activated by an agonist. Therefore, measurement of intracellular cAMP levels can be used to assess whether compounds of the invention are agonists of SSTR subtypes (John Kelly, Troy Stevens, W. Joseph Thompson, and Roland Seifert, Current Protocols in Pharmacology, 2005, 2.2.1-2.2). One example of an intracellular cAMP assay is described below. cAMP assay protocol:
Four days prior to the assay, 5,000 Chinese hamster ovary cells (CHO-K1, ATCC #CCL-61) stably expressing the human somatostatin receptor subtype 2 are plated in each well of a 96-well tissue culture-treated plate in Ham's F12 growth media (ThermoFisher #10-080-CM) supplemented with 10% donor bovine serum (Gemini Bio-Products #100-506), 100 U/mL penicillin; 100 ug/mL streptomycin; 2 mM L-glutamine (Gemini Bio-Products #400-110) and 0.2 mg/mL hygromycin B (GoldBio #31282-04-9). The cells are cultured at 37° C., 5% CO2 and 95% humidity. On the day of the assay, the media is aspirated and the cells are treated with 50 μL of 1.6 μM NKH477 (Sigma #N3290) plus various dilutions of compounds of the invention in assay buffer [1× Hank's Balanced Salt Solution (ThermoFisher #SH3058802), 0.5 mM HEPES pH 7.4, 0.1% bovine serum albumin, 0.2 mM 3-Isobutyl-1-methylxanthine (IBMX, VWR #200002-790)]. The cells are incubated for 20 minutes at 37° C. […] The cells are treated with 50 μL of lysis buffer (HRTF cAMP kit, Cisbio). The lysate is transferred to 384-well plates and cAMP detection and visualization antibodies are added and incubated for 1-24 hours at room temperature. The time-resolved fluorescent signal is read with a Tecan M1000Pro multiplate reader. The intracellular cAMP concentrations are calculated by regression to a standard curve and are plotted vs. the concentration of the compounds of the invention and the EC50 of the compounds are calculated using standard methods. All data manipluations are in GraphPad Prism v6.

T1 sequence (P30874 whole entry): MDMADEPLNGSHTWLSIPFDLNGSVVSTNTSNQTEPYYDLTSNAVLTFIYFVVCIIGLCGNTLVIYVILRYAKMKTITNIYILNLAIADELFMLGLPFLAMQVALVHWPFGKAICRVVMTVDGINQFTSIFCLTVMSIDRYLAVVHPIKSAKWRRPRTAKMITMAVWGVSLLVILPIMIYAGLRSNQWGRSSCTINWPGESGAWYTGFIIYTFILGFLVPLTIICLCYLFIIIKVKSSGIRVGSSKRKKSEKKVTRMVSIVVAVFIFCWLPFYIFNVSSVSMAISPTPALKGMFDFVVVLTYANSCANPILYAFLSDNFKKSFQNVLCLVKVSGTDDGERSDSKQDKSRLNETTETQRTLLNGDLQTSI

Row | SMILES | pEC50
1 | Nc1ncc(-c2cc(F)cc(F)c2)c(N2CCC(N)CC2)c1-c1nc2cc(Cl)ccc2[nH]1 [Compound 1-81, 4-(4-aminopiperidin-1-yl)-3-(5-chloro-1H-1,3-benzodiazol-2-yl)-5-(3,5-difluorophenyl)pyridin-2-amine] | > 8.00
2 | CON=Cc1cc(F)c2[nH]c(-c3c(N)ncc(-c4cc(C)cc(F)c4)c3N3CCC(N)CC3)nc2c1 [Compound 1-61, 4-(4-aminopiperidin-1-yl)-5-(3-fluoro-5-methylphenyl)-3-{7-fluoro-5-[(methoxyimino)methyl]-1H-1,3-benzodiazol-2-yl}pyridin-2-amine] | > 8.00
3 | Nc1ncc(-c2cc(F)cc(F)c2)c(N2CCC(N)CC2)c1-c1nc2cc(Cl)cc(F)c2[nH]1 [Compound 1-82, 4-(4-aminopiperidin-1-yl)-3-(5-chloro-7-fluoro-1H-1,3-benzodiazol-2-yl)-5-(3,5-difluorophenyl)pyridin-2-amine] | > 8.00
4 | COc1cccc2nc(-c3c(N(C)C)ncc(-c4cc(C)cc(F)c4)c3N3CCC(N)CC3)[nH]c12 [Compound 4-4, 4-(4-aminopiperidin-1-yl)-5-(3-fluoro-5-methylphenyl)-3-(7-methoxy-1H-1,3-benzodiazol-2-yl)-N,N-dimethylpyridin-2-amine] | > 8.00
5 | CO[C@@H]1CN(c2c(-c3cc(C)cc(F)c3)cnc(N)c2-c2nc3cc(Cl)ccc3[nH]2)CC[C@H]1N (relative stereo) [Compound 1-7, 4-[trans-4-amino-3-methoxypiperidin-1-yl]-3-(5-chloro-1H-1,3-benzodiazol-2-yl)-5-(3-fluoro-5-methylphenyl)pyridin-2-amine] | > 8.00
6 | CON=Cc1cccc2[nH]c(-c3c(N)ncc(-c4cc(C)cc(F)c4)c3N3CCC(N)CC3)nc12 [Compound 1-44, 4-(4-aminopiperidin-1-yl)-5-(3-fluoro-5-methylphenyl)-3-{4-[(methoxyimino)methyl]-1H-1,3-benzodiazol-2-yl}pyridin-2-amine] | > 8.00
7 | Cc1cc(C)cc(-c2cnc(N)c(C=NOC(C)(C)C)c2N2CCC(N)CC2)c1 [Compound 1-36] | 7.00 to 8.00
8 | COc1cc(F)cc2nc(-c3c(N)ncc(-c4cccc(Cl)c4)c3N3CCC(N)CC3)[nH]c12 [Compound 1-92, 4-(4-aminopiperidin-1-yl)-5-(3-chlorophenyl)-3-(5-fluoro-7-methoxy-1H-1,3-benzodiazol-2-yl)pyridin-2-amine] | > 8.00
9 | Cc1cc(Cl)cc(-c2cnc(N)c(-c3nc4cc(F)cc(F)c4[nH]3)c2N2CCC(N)CC2)c1 [Compound 1-79, 4-(4-aminopiperidin-1-yl)-5-(3-chloro-5-methylphenyl)-3-(5,7-difluoro-1H-1,3-benzodiazol-2-yl)pyridin-2-amine] | > 8.00
10 | CNc1ncc(-c2cc(C)cc(F)c2)c(N2CCC(N)CC2)c1-c1nc2ccc(C#N)cc2[nH]1 [Compound 1-70, 2-[4-(4-aminopiperidin-1-yl)-5-(3-fluoro-5-methylphenyl)-2-(methylamino)pyridin-3-yl]-1H-1,3-benzodiazole-6-carbonitrile] | > 8.00
11 | CNC1CCN(c2c(-c3cc(C)cc(F)c3)cnc(N)c2-c2nc3cc(F)cc(OC)c3[nH]2)CC1 [Compound 4-10, 3-(5-fluoro-7-methoxy-1H-1,3-benzodiazol-2-yl)-5-(3-fluoro-5-methylphenyl)-4-[4-(methylamino)piperidin-1-yl]pyridin-2-amine] | > 8.00
12 | CNc1ncc(-c2cc(C)cc(F)c2)c(N2CCC(NC)CC2)c1-c1nc2cc(Cl)ccc2[nH]1 [Compound 4-1, 3-(5-chloro-1H-1,3-benzodiazol-2-yl)-5-(3-fluoro-5-methylphenyl)-N-methyl-4-[4-(methylamino)piperidin-1-yl]pyridin-2-amine] | > 8.00
13 | Cc1cc(F)cc(-c2cnc(N)c(-c3nc4cc5c(cc4[nH]3)OC(F)(F)O5)c2N2CCC(N)CC2)c1 [Compound 1-31, 4-(4-aminopiperidin-1-yl)-3-{5,5-difluoro-4,6-dioxa-10,12-diazatricyclo[7.3.0.0^3,7]dodeca-1,3 (7),8,10-tetraen-11-yl}-5-(3-fluoro-5-methylphenyl)pyridin-2-amine] | > 8.00
14 | Cc1cc(F)cc(-c2cnnc(-c3cc4cc(F)ccc4[nH]3)c2N2CCC(N)CC2)c1 [Compound 3-8, 1-[3-(5-fluoro-1H-indol-2-yl)-5-(3-fluoro-5-methylphenyl)pyridazin-4-yl]piperidin-4-amine] | > 8.00
15 | Cc1cc(F)cc(-c2cnc(N)c(C=NOC(C)(C)C)c2N2CCC(N)CC2)c1 [Compound 1-35] | > 8.00
16 | Cc1cc(F)cc(-c2cnc(O)c(-c3nc4cc(F)ccc4[nH]3)c2N2CCC(N)CC2)c1 [Compound 2-10, 4-(4-aminopiperidin-1-yl)-3-(5-fluoro-1H-1,3-benzodiazol-2-yl)-5-(3-fluoro-5-methylphenyl)pyridin-2-ol] | 7.00 to 8.00
17 | CONC(=O)Nc1ccc2[nH]c(-c3c(N)ncc(-c4cc(C)cc(F)c4)c3N3CCC(N)CC3)nc2c1 [Compound 1-46, 1-{2-[2-amino-4-(4-aminopiperidin-1-yl)-5-(3-fluoro-5-methylphenyl)pyridin-3-yl]-1H-1,3-benzodiazol-5-yl}-3-methoxyurea] | > 8.00
18 | Cc1cc(F)cc(-c2cnnc(-c3[nH]c4cc(C#N)ccc4c3C#N)c2N2CCC(N)CC2)c1 [Compound 3-26, 2-[4-(4-aminopiperidin-1-yl)-5-(3-fluoro-5-methylphenyl)pyridazin-3-yl]-1H-indole-3,6-dicarbonitrile] | > 8.00
19 | Cc1cc(F)cc(-c2cnc(N)c(-c3nc4cc(S(N)(=O)=O)ccc4[nH]3)c2N2CCC(N)CC2)c1 [Compound 1-9, 2-[2-amino-4-(4-aminopiperidin-1-yl)-5-(3-fluoro-5-methylphenyl)pyridin-3-yl]-1H-1,3-benzodiazole-5-sulfonamide] | > 8.00
20 | Cc1cc(F)cc(-c2cnc(Cl)c(-c3nc4cc(F)ccc4[nH]3)c2N2CCC(N)CC2)c1 [Compound 2-11, 1-[2-chloro-3-(5-fluoro-1H-1,3-benzodiazol-2-yl)-5-(3-fluoro-5-methylphenyl)pyridin-4-yl]piperidin-4-amine] | > 8.00
21 | CONC(=O)c1cccc2nc(-c3c(N)ncc(-c4cc(C)cc(F)c4)c3N3CCC(N)CC3)[nH]c12 [Compound 1-17, 2-[2-amino-4-(4-aminopiperidin-1-yl)-5-(3-fluoro-5-methylphenyl)pyridin-3-yl]-N-methoxy-1H-1,3-benzodiazole-7-carboxamide] | 7.00 to 8.00
22 | Nc1ncc(-c2cc(F)cc(F)c2)c(N2CCC(N)CC2)c1-c1nc2cc(OC(F)(F)F)ccc2[nH]1 [Compound 1-86, 4-(4-aminopiperidin-1-yl)-5-(3,5-difluorophenyl)-3-[5-(trifluoromethoxy)-1H-1,3-benzodiazol-2-yl]pyridin-2-amine] | > 8.00
23 | COc1ncc(-c2cc(C)cc(C#N)c2)c(N2CCC(N)CC2)c1-c1nc2cc(Cl)ccc2[nH]1 [Compound 2-6, 3-[4-(4-aminopiperidin-1-yl)-5-(5-chloro-1H-1,3-benzodiazol-2-yl)-6-methoxypyridin-3-yl]-5-methylbenzonitrile] | 7.00 to 8.00
24 | COc1ccc2c(Cl)c(-c3nncc(-c4cc(C)cc(F)c4)c3N3CCC(N)CC3)[nH]c2c1 [Compound 3-21, 1-[3-(3-chloro-6-methoxy-1H-indol-2-yl)-5-(3-fluoro-5-methylphenyl)pyridazin-4-yl]piperidin-4-amine] | > 8.00

From patent publication US11072598B2, “Somatostatin modulators and uses thereof” (CRINETICS PHARMACEUTICALS, INC., priority 2017, dated 2021)
